*1 amine or outer side, *2 acyl side, *3 side chain or, on linkers, in order; H or OH if unused. Where a SMILES comes first, the peptide text is derived from it. Side-chain parts run from the residue outwards. The star is where a group is joined. C18 diacid = O=C(O)CCCCCCCCCCCCCCCCC(=O)*; γGlu = O=C(O)[C@H](CCC(=O)[*:2])N[*:1]; Isovaleryl = CC(C)CC(=O)*; Ahx = NCCCCCC(=O)O
What was measured:
[1] = target: T1, human NPY5 receptor (hY5R) (Homo sapiens, UniProt Q15761); experiment: HTRF cAMP Gi assay, hY5R
T1 sequence (Q15761 1-445): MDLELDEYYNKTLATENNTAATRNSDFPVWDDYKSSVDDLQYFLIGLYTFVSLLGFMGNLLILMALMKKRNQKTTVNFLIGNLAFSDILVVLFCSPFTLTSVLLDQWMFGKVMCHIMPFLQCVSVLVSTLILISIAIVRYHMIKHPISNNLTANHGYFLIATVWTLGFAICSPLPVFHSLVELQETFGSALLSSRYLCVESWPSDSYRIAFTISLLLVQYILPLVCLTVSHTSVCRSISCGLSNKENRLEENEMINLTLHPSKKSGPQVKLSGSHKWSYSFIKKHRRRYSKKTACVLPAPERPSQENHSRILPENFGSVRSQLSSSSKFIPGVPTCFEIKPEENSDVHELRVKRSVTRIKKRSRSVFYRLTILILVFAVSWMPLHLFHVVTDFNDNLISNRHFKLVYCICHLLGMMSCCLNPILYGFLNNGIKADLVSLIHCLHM
Protocol: (§1) Briefly, the production of intracellular cAMP will generate a competition between unlabeled cAMP and exogenously added d2-cAMP for anti-cAMP antibodies conjugated to cryptate. CHO-K1 cells stably expressing the human NPY1, NPY2, NPY4 and NPY5 receptors were used with the cells brought to life from a frozen stock immediately before assay performance. 2000 cells per well were applied for all four NPY receptor subtype assays. A 384-well format was used applying a total volume of 20 μl using 5 μl cells, 2.5 μl peptide agonist, 2.5 μl forskolin and 5 μl of each of the fluorophores. […] Concentration-response evaluation of compounds was performed with 11 concentrations of agonist peptides (covering 3 decades). EC50 values were calculated by nonlinear regression using sigmoid concentration-response with variable slope.

[2] = target: T2, human NPY1 receptor (hY1R) (Homo sapiens, UniProt P25929); experiment: HTRF cAMP Gi assay, hY1R; assay type: cell-based; conditions: CHO-K1 cells
T2 construct: expressed in transfected cells; host or cells: CHO-K1
T2 sequence (P25929 1-384): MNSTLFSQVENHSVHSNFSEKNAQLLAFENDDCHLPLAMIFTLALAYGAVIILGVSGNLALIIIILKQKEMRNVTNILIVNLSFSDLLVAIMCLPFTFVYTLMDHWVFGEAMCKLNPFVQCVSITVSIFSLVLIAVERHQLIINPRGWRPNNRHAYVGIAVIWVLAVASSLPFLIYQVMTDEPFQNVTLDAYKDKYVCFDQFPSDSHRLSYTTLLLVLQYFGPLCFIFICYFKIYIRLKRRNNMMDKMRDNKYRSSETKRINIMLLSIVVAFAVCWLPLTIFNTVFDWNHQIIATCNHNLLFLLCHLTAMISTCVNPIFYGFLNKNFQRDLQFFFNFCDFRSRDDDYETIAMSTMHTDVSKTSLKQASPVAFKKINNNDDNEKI
Protocol: as §1

[3] = target: T3, human NPY4 receptor (hY4R) (Homo sapiens, UniProt P50391); experiment: HTRF cAMP Gi assay, hY4R; assay type: cell-based; conditions: CHO-K1 cells
T3 construct: expressed in transfected cells; host or cells: CHO-K1

[4] = Solubility determination; conditions: for Sol6: pH 6; for Sol7: pH 7
Procedure, shortened: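 Sample: TFA-salt peptide at 10 mg/ml target in 0.1 M Na diphosphate, pH 6.4 or 7.0, shaken 2 h RT, filtered, diluted to 1 mg/ml.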

[5] = target: T4, Human Neuropeptide Y2 Receptor (Homo sapiens, UniProt P49146); experiment: Radioligand binding competition assay (RLB); conditions: Table 3, 125I-PYY(1-36) competition; read-out: Ki
T4 construct: purchased CHEMICON HTS066M
T4 sequence (P49146 1-381): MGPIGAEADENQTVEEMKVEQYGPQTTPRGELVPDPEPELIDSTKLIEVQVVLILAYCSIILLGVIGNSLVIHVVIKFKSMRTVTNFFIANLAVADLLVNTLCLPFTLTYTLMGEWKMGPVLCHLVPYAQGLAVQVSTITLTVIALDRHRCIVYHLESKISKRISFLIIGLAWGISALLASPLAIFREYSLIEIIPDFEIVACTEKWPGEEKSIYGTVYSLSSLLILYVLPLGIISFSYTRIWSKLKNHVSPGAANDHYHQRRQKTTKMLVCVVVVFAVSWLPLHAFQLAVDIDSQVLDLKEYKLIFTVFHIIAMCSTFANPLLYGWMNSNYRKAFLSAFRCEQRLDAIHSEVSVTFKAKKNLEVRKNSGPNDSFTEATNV
Procedure, shortened: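 Displacement of radioligand is measured after 2 h at room temperature with receptor membranes in Mg2+/Ca2+ HEPES buffer, pH 7.4. Filter-bound radioactivity is counted and IC50 obtained from curve fitting.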

T3 sequence (P50391 whole entry): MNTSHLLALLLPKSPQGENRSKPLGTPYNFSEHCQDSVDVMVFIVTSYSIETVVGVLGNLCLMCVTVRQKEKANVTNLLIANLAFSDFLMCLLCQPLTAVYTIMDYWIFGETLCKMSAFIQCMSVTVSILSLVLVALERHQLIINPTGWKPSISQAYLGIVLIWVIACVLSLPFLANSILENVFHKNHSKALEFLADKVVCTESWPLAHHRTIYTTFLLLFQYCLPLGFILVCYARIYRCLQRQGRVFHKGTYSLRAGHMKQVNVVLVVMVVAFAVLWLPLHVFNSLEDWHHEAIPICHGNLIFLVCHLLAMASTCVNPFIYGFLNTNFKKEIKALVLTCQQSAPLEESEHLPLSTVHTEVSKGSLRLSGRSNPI

EC50 [1] [µM]	EC50 [2] [µM]	EC50 [3] [µM]	Sol6 [4] [mg/mL]	Sol7 [4] [mg/mL]	Ki [5] [µM]	SMILES
> 5	> 5	> 5	9.8	9.9	–	CC(C)CC(=O)N[C@@H](C)C(=O)N1CCC[C@H]1C(=O)N[C@@H](CCC(=O)O)C(=O)N[C@@H](CCCCNC(=O)CCCCCNC(=O)CC[C@H](NC(=O)CCCCCCCCCCCCCCCCC(=O)O)C(=O)O)C(=O)N1CCC[C@H]1C(=O)N[C@@H](CCC(=O)O)C(=O)N[C@@H](C)C(=O)N[C@@H](CCC(=O)O)C(=O)N[C@@H](C)C(=O)N[C@@H](CO)C(=O)N1CCC[C@H]1C(=O)N[C@@H](CCC(=O)O)C(=O)N[C@@H](CCC(=O)O)C(=O)N[C@@H](CC(C)C)C(=O)N[C@@H](CCC(N)=O)C(=O)N[C@@H](CCCNC(=N)N)C(=O)N[C@@H](Cc1ccc(O)cc1)C(=O)N[C@@H](Cc1ccc(O)cc1)C(=O)N[C@H](C(=O)N[C@@H](CO)C(=O)N[C@@H](CC(C)C)C(=O)N[C@@H](CCCNC(=N)N)C(=O)N[C@@H](Cc1c[nH]cn1)C(=O)N[C@@H](Cc1ccc(O)cc1)C(=O)N[C@@H](Cc1ccc(O)cc1)C(=O)N[C@@H](CC(N)=O)C(=O)N[C@@H](Cc1c[nH]c2ccccc12)C(=O)N[C@@H](CC(C)C)C(=O)N[C@H](C(=O)N[C@@H](CCCNC(=N)N)C(=O)N[C@@H](CCC(N)=O)C(=O)N[C@@H](CCCNC(=N)N)C(=O)N[C@@H](Cc1ccc(O)cc1)C(N)=O)[C@@H](C)O)C(C)C [Compound 122, N{alpha-4}-(3-methylbutanoyl)-N{epsilon-7}-(6-[(4S)-4-carboxy-4-(17-carboxyheptadecanamido)butanamido]hexanoyl)-[4A,7K,9E,10A,11E,18Q,22V,28Y,30W,31L]-hPYY(4-36)]
> 5	> 5	> 5	8.9	9.1	0.00342	CC[C@H](C)[C@H](NC(=O)[C@H](CCC(=O)O)NC(=O)[C@H](CCC(=O)O)NC(=O)[C@@H]1CCCN1C(=O)[C@H](CO)NC(=O)[C@H](C)NC(=O)[C@H](CCC(=O)O)NC(=O)[C@H](CCC(=O)O)NC(=O)[C@H](CCC(=O)O)NC(=O)[C@@H]1CCCN1C(=O)[C@H](CCCCNC(=O)CCCCCNC(=O)CC[C@H](NC(=O)CCCCCCCCCCCCCCCCC(=O)O)C(=O)O)NC(=O)[C@H](CCC(=O)O)NC(=O)[C@@H]1CCCN1C(=O)[C@H](C)NC(=O)CC(C)C)C(=O)N[C@@H](CCC(N)=O)C(=O)N[C@@H](CCCNC(=N)N)C(=O)N[C@@H](Cc1ccc(O)cc1)C(=O)N[C@@H](Cc1ccc(O)cc1)C(=O)N[C@H](C(=O)N[C@@H](CO)C(=O)N[C@@H](CC(C)C)C(=O)N[C@@H](CCCNC(=N)N)C(=O)N[C@@H](Cc1c[nH]cn1)C(=O)N[C@@H](Cc1ccc(O)cc1)C(=O)N[C@@H](Cc1ccc(O)cc1)C(=O)N[C@@H](CC(N)=O)C(=O)N[C@@H](Cc1c[nH]c2ccccc12)C(=O)N[C@@H](CC(C)C)C(=O)N[C@H](C(=O)N[C@@H](CCCNC(=N)N)C(=O)N[C@@H](CCC(N)=O)C(=O)N[C@@H](CCCNC(=N)N)C(=O)N[C@@H](Cc1ccc(O)cc1)C(N)=O)[C@@H](C)O)C(C)C [Compound 193, N{alpha-4}-(3-methylbutanoyl)-N{epsilon-7}-(6-[(4S)-4-carboxy-4-(17-carboxyheptadecanamido)butanamido]hexanoyl)-[4A,7K,9E,11E,17I,18Q,22V,28Y,30W,31L]-hPYY(4-36)]
≥ 5	–	–	8.9	9.4	0.00464	CC(C)CC(=O)N[C@@H](C)C(=O)N1CCC[C@H]1C(=O)N[C@@H](CCC(=O)O)C(=O)N[C@@H](CCCCNC(=O)CCCCCNC(=O)CC[C@H](NC(=O)CCCCCCCCCCCCCCCCC(=O)O)C(=O)O)C(=O)N1CCC[C@H]1C(=O)N[C@@H](CCC(=O)O)C(=O)N[C@@H](CCC(=O)O)C(=O)N[C@@H](CC(=O)O)C(=O)N[C@@H](C)C(=O)N[C@@H](CCC(=O)O)C(=O)N1CCC[C@H]1C(=O)N[C@@H](CCC(=O)O)C(=O)N[C@@H](CCC(=O)O)C(=O)N[C@@H](CC(C)C)C(=O)N[C@@H](CCC(N)=O)C(=O)N[C@@H](CCCNC(=N)N)C(=O)N[C@@H](Cc1ccc(O)cc1)C(=O)N[C@@H](Cc1ccc(O)cc1)C(=O)N[C@H](C(=O)N[C@@H](CO)C(=O)N[C@@H](CC(C)C)C(=O)N[C@@H](CCCNC(=N)N)C(=O)N[C@@H](Cc1c[nH]cn1)C(=O)N[C@@H](Cc1ccc(O)cc1)C(=O)N[C@@H](Cc1ccc(O)cc1)C(=O)N[C@@H](Cc1c[nH]cn1)C(=O)N[C@@H](Cc1c[nH]c2ccccc12)C(=O)N[C@@H](CC(C)C)C(=O)N[C@H](C(=O)N[C@@H](CCCNC(=N)N)C(=O)N[C@@H](CCC(N)=O)C(=O)N[C@@H](CCCNC(=N)N)C(=O)N[C@@H](Cc1ccc(O)cc1)C(N)=O)[C@@H](C)O)[C@@H](C)O [Compound 91, N{alpha-4}-(3-methylbutanoyl)-N{epsilon-7}-(6-[(4S)-4-carboxy-4-(17-carboxyheptadecanamido)butanamido]hexanoyl)-[4A,7K,9E,13E,18Q,22T,28Y,29H,30W,31L]-hPYY(4-36)] (Isovaleryl-APEK([Ahx-γGlu-C18 diacid])PEEDAEPEELQRYYTSLRHYYHWLTRQRY-NH2)
> 5	–	–	10.0	10.0	0.00268	CC[C@H](C)[C@H](NC(=O)[C@H](Cc1ccc(O)cc1)NC(=O)[C@H](Cc1ccc(O)cc1)NC(=O)[C@H](CCCNC(=N)N)NC(=O)[C@H](CCC(N)=O)NC(=O)[C@H](CC(C)C)NC(=O)[C@H](CCC(=O)O)NC(=O)[C@H](CCC(=O)O)NC(=O)[C@@H]1CCCN1C(=O)[C@H](CO)NC(=O)[C@H](C)NC(=O)[C@H](CC(=O)O)NC(=O)[C@H](CCC(=O)O)NC(=O)[C@H](CCC(=O)O)NC(=O)[C@@H]1CCCN1C(=O)[C@H](CCCCNC(=O)CCCCCNC(=O)CC[C@H](NC(=O)CCCCCCCCCCCCCCCCC(=O)O)C(=O)O)NC(=O)[C@H](CCC(=O)O)NC(=O)[C@@H]1CCCN1C(=O)[C@H](C)NC(=O)CC(C)C)C(=O)N[C@@H](CO)C(=O)N[C@@H](CC(C)C)C(=O)N[C@@H](CCCNC(=N)N)C(=O)N[C@@H](Cc1c[nH]cn1)C(=O)N[C@@H](Cc1ccc(O)cc1)C(=O)N[C@@H](Cc1ccc(O)cc1)C(=O)N[C@@H](CC(N)=O)C(=O)N[C@@H](Cc1c[nH]c2ccccc12)C(=O)N[C@@H](CC(C)C)C(=O)N[C@H](C(=O)N[C@@H](CCCNC(=N)N)C(=O)N[C@@H](CCC(N)=O)C(=O)N[C@@H](CCCNC(=N)N)C(=O)N[C@@H](Cc1ccc(O)cc1)C(N)=O)[C@@H](C)O [Compound 76, N{alpha-4}-(3-methylbutanoyl)-N{epsilon-7}-(6-[(4S)-4-carboxy-4-(17-carboxyheptadecanamido)butanamido]hexanoyl)-[4A,7K,9E,18Q,22I,28Y,30W,31L]-hPYY(4-36)]

— patent US12391737B2, “Soluble NPY2 receptor agonists” (Boehringer Ingelheim International GmbH, priority 2020, dated 2025)
